Measured values reported in patent publication US7332504B2, “Heterocyclic substituted aminoazacycles useful as central nervous system agents” (Abbott Laboratories, priority 1999, dated 2008).
Where a name gives a salt, the structure may show the parent alone. Read-outs that look alike come from different tables or passages of the source. One block for each compound: values may come before it.

Target: T1, neuronal nicotinic acetylcholine receptors (Rattus norvegicus, UniProt P09483+P12390)
T1 construct: crude synaptic membrane preparations from whole rat brain; from tissue; host or cells: whole rat brain, crude synaptic membranes
Assay: Binding of [3H]-cytisine to neuronal nicotinic acetylcholine receptors, crude synaptic membranes from whole rat brain
Experimental: The In Vitro protocols for determination of nicotinic acetylcholine channel receptor binding potencies of ligands were determined as follows.
Binding of [^3H]-cytisine ([^3 H]-CYT) to neuronal nicotinic acetylcholine receptors was accomplished using crude synaptic membrane preparations from whole rat brain (Pabreza et al., Molecular Pharmacol., 1990, 39:9). Washed membranes were stored at —80° C. prior to use. Frozen aliquots were slowly thawed and resuspended in 20 volumes of buffer (containing: 120 mM NaCl, 5 mM KCl, 2 mM MgCl2, 2 mM CaCl2 and 50 mM Tris-Cl, pH 7.4 @4° C.). After centrifuging at 20,000×g for 15 minutes, the pellets were resuspended in 30 volumes of buffer.
The test compounds were dissolved in water to make 10 mM stock solutions. Each solution was then diluted (1:100) with buffer (as above) and further taken through seven serial log dilutions of produce test solution from 10^−5 to 10^−11 M.
Homogenate (containing 125-150 μg protein) was added to triplicate tubes containing the range of concentrations of test compound described above and [^3H]-CYT (1.25 nM) in a final volume of 500 μL. Samples were incubated for 60 minutes at 4° C., then rapidly filtered through Whatman GF/B filters presoaked in 0.5% polyethyleneimine using 3×4 mL of ice-cold buffer. The filter are counted in 4 mL of Ecolume® (ICN). Nonspecific binding was determined in the presence of 10 μM (−)-nicotine and values were expressed as a percentage of total binding. IC50 values were determined with the RS-1 (BBN) nonlinear least squares curve-fitting program and IC50 values were converted to Ki values using the Cheng and Prusoff correction ([…].

[1] = [3H]-cytisine 1.25 nM, whole rat brain membranes, 60 minutes at 4° C., Ki from IC50 by Cheng and Prusoff correction, read-out: Average Ki

T1 sequence (P09483 31-630): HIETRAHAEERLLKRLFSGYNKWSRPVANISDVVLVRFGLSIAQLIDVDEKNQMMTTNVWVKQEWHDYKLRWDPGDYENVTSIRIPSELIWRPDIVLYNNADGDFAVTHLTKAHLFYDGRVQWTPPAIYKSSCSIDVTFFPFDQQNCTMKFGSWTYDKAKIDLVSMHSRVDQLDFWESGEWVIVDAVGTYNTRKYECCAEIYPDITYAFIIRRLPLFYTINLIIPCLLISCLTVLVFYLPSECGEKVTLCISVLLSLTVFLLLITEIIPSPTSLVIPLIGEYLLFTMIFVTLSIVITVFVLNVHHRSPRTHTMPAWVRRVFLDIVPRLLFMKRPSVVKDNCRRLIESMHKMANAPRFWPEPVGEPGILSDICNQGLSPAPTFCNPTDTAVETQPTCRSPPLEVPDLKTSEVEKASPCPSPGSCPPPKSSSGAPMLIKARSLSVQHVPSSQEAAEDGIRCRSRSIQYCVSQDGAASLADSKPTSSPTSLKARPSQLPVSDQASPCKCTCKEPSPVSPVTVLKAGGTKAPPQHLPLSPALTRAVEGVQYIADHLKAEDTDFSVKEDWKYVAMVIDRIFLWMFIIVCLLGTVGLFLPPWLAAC
T1 sequence (P12390 25-500): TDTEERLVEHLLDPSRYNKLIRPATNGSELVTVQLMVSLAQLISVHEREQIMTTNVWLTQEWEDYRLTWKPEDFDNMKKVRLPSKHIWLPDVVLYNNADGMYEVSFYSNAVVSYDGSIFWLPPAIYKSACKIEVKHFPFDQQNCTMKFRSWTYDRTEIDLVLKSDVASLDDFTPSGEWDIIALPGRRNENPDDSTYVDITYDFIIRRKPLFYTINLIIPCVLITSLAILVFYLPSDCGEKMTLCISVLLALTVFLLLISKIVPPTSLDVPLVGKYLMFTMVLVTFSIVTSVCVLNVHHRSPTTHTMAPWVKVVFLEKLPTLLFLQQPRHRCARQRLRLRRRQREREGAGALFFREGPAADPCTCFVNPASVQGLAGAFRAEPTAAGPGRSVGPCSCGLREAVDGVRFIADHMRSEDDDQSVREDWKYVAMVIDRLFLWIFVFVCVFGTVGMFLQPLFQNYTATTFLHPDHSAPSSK

Structure (SMILES): C[C@H]1CCN(c2ccc(Cl)nc2)C[C@H]1N (relative stereo) [Example 39, (cis) 1-(6-chloro-3-pyridinyl)-4-methyl-3-piperidinylamine hydrochloride]
Ki: 0.085 µM

Structure (SMILES): C[C@@H]1CCN(c2ccc(Cl)nc2)C[C@H]1N (relative stereo) [Example 40, (trans) 1-(6-chloro-3-pyridinyl)-4-methyl-3-piperidinylamine hydrochloride]
Ki: 0.0054 µM

Structure (SMILES): CN(C)[C@@H]1CCN(c2ccc(Cl)nc2)C1 [Example 6, N-[(3R)-1-(6-chloro-3-pyridinyl)pyrrolidinyl]-N,N-dimethylamine 4-methylbenzenesulfonate]
Ki: 0.1 µM

Structure (SMILES): NC1CCN(c2cccnc2)C1 (centres unmarked) [Example 10, 1-(3-pyridinyl)-3-pyrrolidinylamine bis(4-methylbenzenesulfonate)]
Ki: 0.00015 µM

Structure (SMILES): N[C@@H]1CCN(c2cncc(C(F)(F)F)c2)C1 [Example 11, (3R)-1-[5-(trifluoromethyl)-3-pyridinyl]pyrrolidinylamine dihydrochloride]
Ki: 0.003 µM

Structure (SMILES): CN[C@@H]1CCN(c2cncc(C(F)(F)F)c2)C1 [Example 12, N-methyl-N-{(3R)-1-[5-(trifluoromethyl)-3-pyridinyl]pyrrolidinyl}amine hydrochloride]
Ki [1]: 0.114 µM

Structure (SMILES): N[C@H]1CCN(c2cncc(C(F)(F)F)c2)C1 [Example 13, (3S)-1-[5-(trifluoromethyl)-3-pyridinyl]pyrrolidinylamine dihydrochloride]
Ki: 0.001 µM

Structure (SMILES): CN[C@H]1CCN(c2cncc(C(F)(F)F)c2)C1 [Example 14, N-methyl-N-{(3S)-1-[5-(trifluoromethyl)-3-pyridinyl]pyrrolidinyl}amine hydrochloride]
Ki: 0.0063 µM

Structure (SMILES): CN[C@H]1CCN(c2cnc(F)c(C)c2)C1 [Example 26, N-[(3S)-1-(6-fluoro-5-methyl-3-pyridinyl)pyrrolidinyl]-N-methylamine dihydrochloride]
Ki: 0.0015 µM

Structure (SMILES): Cc1cc(N2CC[C@@H](N)C2)cnc1F [Example 27, (3R)-1-(6-fluoro-5-methyl-3-pyridinyl)pyrrolidinylamine hydrochloride]
Ki: 0.00044 µM

Structure (SMILES): CN[C@@H]1CCN(c2cnc(F)c(C)c2)C1 [Example 28, N-[(3R)-1-(6-fluoro-5-methyl-3-pyridinyl)pyrrolidinyl]-N-methylamine dihydrochloride]
Ki: 0.039 µM

Structure (SMILES): CN[C@H]1CCN(c2cncc([N+](=O)[O-])c2)C1 [Example 30, N-methyl-N-[(3S)-1-(5-nitro-3-pyridinyl)pyrrolidinyl]amine fumarate]
Ki: 0.012 µM

Structure (SMILES): CN[C@@H]1CCN(c2cncc([N+](=O)[O-])c2)C1 [Example 32, N-methyl-N-[(3R)-1-(5-nitro-3-pyridinyl)pyrrolidinyl]amine fumarate]
Ki: 0.195 µM

Ki [1]: 0.092 µM
Structure (SMILES): NC1CCN(c2ccc(Cl)nc2)CC1 [Example 37, 1-(6-chloro-3-pyridinyl)-4-piperidinylamine 4-methylbenzenesulfonate]

Structure (SMILES): CN[C@@H]1CCCN(c2cccnc2)C1 [Example 44, N-methyl-N-[(3R)-1-(3-pyridinyl)piperidinyl]amine dihydrochloride]
Ki: 0.205 µM

Structure (SMILES): NC1CN(c2ccc(Cl)nc2)C1 [Example 50, 1-(6-chloro-3-pyridinyl)-3-azetidinylamine 4-methylbenzenesulfonate]
Ki [1]: 0.174 µM

Structure (SMILES): N[C@@H]1CCN(c2cccnc2)[C@@H]1CCl [Example 51, (2S,3R)-2-(chloromethyl)-1-(3-pyridinyl)pyrrolidinylamine dihydrochloride]
Ki: 0.714 µM
